The values below come from PMC11029812, “Liver-targeted polymeric prodrugs delivered subcutaneously improve tafenoquine therapeutic window for malaria radical cure” (Science Advances, 2024).

Entries after “also recorded” stand apart in the source; their conditions may differ.

For this assay, the system named is P. berghei. As to the kind of experiment: P. berghei luciferase and blood parasitemia model of causal prophylaxis. Type of assay: in vivo. The settings on record: for Mice survived: 31 days, n = 5. The procedure:
Efficacy studies in the P. berghei mouse model of causal prophylaxis were conducted at the Walter Reed Army Institute of Research, Experimental Therapeutics Branch as previously described ([46]).
Luciferase-expressing P. berghei ANKA sporozoites were obtained from laboratory-reared female Anopheles stephens mosquitoes as previously described ([46]). Sporozoites were recovered by the method of Li et al. ([62]) and quantitated using a hemocytometer. Sporozoites isolated from the same batch of mosquitoes were inoculated into mice on the same day to control biological variability in sporozoite preparations. Each animal was inoculated IV in the tail vein with approximately 10,000 sporozoites suspended in 0.1-ml volume on day 0.
Age-matched, 40 young adult (7-week-old) female C57BL/6 albino mice were purchased from Charles River Laboratories (Frederick, MD). On arrival, animals were acclimated for 7 days in quarantine. Mice were housed and maintained at a temperature range of 64° to 79°F, 34 to 68% relative humidity, and a 12-hour light/dark cycle. Food and water were provided ad libitum. Animals were fed a standard rodent maintenance diet. All animal use, care, and handling was conducted under an IACUC-approved animal use protocol in an Association for Assessment and Accreditation for Laboratory Animal Care International (AAALACi)–accredited facility with a Public Health Services Animal Welfare Assurance and in compliance with the Animal Welfare Act and other federal statutes and regulations relating to laboratory animals.
TQ was dissolved at a stock concentration of 1 mg/ml in 25% hydroxy-β-cyclodextrin acidified to pH 5 with acetic acid and diluted in DPBS for final dosing solutions. Polymers for parenteral administration were prepared in DPBS at the final dosing concentrations. All drug concentrations were calculated per the free base molecular weights of TQ. TQ parent compounds were administered intragastrically via an intragastric feeder tube. Vehicle groups (0.1 ml of DPBS) and polymer groups were administered SC in the right flank. Free TQ, vehicle, and polymers were given as a single dose on day −1. In this model, the pSVCTQ doses studied were 5.0, 7.5, or 10 mg/kg TQ equivalent.
Whole-body IVIS imaging of bioluminescence activity from luciferase-expressing P. berghei–infected mice was performed using a PerkinElmer IVIS Spectrum. Mice were evaluated at 24, 48, and 72 hours after sporozoite inoculation to determine liver- and blood-stage malaria infection. Mice received luciferin (150 mg/kg, Gold Biotechnology, St. Louis, MO) intraperitoneally in a maximal volume of 150 μl. Three minutes after luciferin administration, the mice were anesthetized with inhaled isoflurane and positioned ventral side up in the IVIS Spectrum on a 37°C platform. The mice continued to receive isoflurane through nose cone delivery. The camera exposure times used were 1 or 5 min for the 24-, 48-, and 72-hour time points with f-stop = 1, and the large binning setting was chosen. Quantitative analysis of bioluminescence emitted from whole bodies or […] (ROI) were determined by measuring the luminescence signal intensity in photons per second using the ROI settings of the Living Image 3.0 software. The ROI, expressed in total flux of photons, was set to measure the abdominal area at the location of the liver from whole-body imaging ([62]). The data were generally found to fit a normal distribution. Means and SDs of photon measurement were calculated.
On days 5 to 31 after infection, mice were analyzed for blood-stage infections by quantitation of malaria parasites in erythrocytes by flow cytometry. Blood (3 μl) from the mouse tail was collected directly into 0.3 ml of 1% heparinized isotonic buffer (PBS saline). After addition of 1 ml of 0.04% of glutaraldehyde for fixation, the samples were incubated at 4°C for 60 min. Cells were centrifuged at 450g for 5 min. […]

For p(GalNAc-MA-co-SVCTQ-MA) [pSVCTQ], the Mice survived is given as 2/5 (5 mg/kg SC, single dose day −1); 4/5 (7.5 mg/kg SC, single dose day −1); “All mice survived” (10 mg/kg SC, single dose day −1); 5/5 (10 mg/kg SC, single dose day −1, listed as SVCTQ polymer). The Blood parasitemia suppression result (5 mg/kg TQ equivalent SC, single dose day −1) is given as “partial suppression of parasitemia”. In addition, the “Causal prophylaxis (complete parasite suppression)” value (10 mg/kg TQ equivalent SC, single dose day −1) is 100%. Besides, the “IVIS signal during days 1 to 3” value (10 mg/kg single dose day −1, pSVCTQ SC, TQ oral) is “completely suppressed”. Under “P. berghei prophylactic model, single dose day −1”, the “Activity compared to oral TQ (based on the TQ equivalent dose)” value was “approximately twofold; also recorded: approximately twice”.
